Reference: US20090209527A1, “Methods for Using Rapamycin Analogues in the Treatment of Neurological Disorders” (Wyeth, priority 2008, published 2009)
“Also recorded” adds a separate entry of the source.

Columns and labels:
[1] = system: tMCAO in rats; assay: Transient middle cerebral artery occlusion (tMCAO) model of ischemic stroke; format: in vivo, rat; details: for reduction of infarct volume: 72 hours
Procedure: The compound of Example 2 was evaluated in two known rodent models of ischemic stroke. [Bederson J B, Pitts L H, Tsuji M, Nishimura M C, Davis R L, Bartkowski H (1986) Rat middle cerebral artery occlusion: evaluation of the model and development of a neurologic examination. Stroke 17(3): 472-476; Chen S T, Hsu C Y, Hogan E L, Maricq H Balentine J D (1986) A model of focal ischemic stroke in the rat: reproducible extensive cortical infarction. Stroke 17:738-743. DeRyck M, van Reempts J, Duytschaever H, van Deuren B, Clincke G (1992) Neocortical localization of tactile/proprioceptive limb placing reactions in the rat. Brain Res 573:44-60; Longa Z E, Weinstein P R, Carlson S, Cummins R. (1989) Reversible middle cerebral artery occlusion without craniectomy in rats. Stroke 20:294-297.]
The first model is a transient middle cerebral artery occlusion (tMCAO), in which the MCA is occluded for 90 minutes, followed by 72 hours of reperfusion. Rats were subjected to tMCAO and treated with either the compound of Example 2 (3 mg/kg, 10 mg/kg, or 30 mg/kg) via intravenous delivery [iv vehicle: 5% Tween 80, 5% PEG 400, 4% ethanol] or vehicle alone at 4, 6, 24, and 48 hours post-occlusion (4 total doses). Neurological deficits (modified Bederson scale) and weight loss were monitored at 0, 24, 48, and 72 hours post occlusion. At the end of the evaluation period, rats were euthanized and infarct volume was determined. A modified Bederson scale was used to evaluate neurological deficits following stroke. Animals were scored on a scale of 0 to 5, based on five parameters (forelimb flexion, torso twisting, resistant to lateral push, circling to contralateral side, and spontaneous circling). A score of 0 is normal whereas a score of 5 represents severe neurological deficits.

[2] = system: pMCAO in rats; assay: Permanent occlusion of middle cerebral artery (pMCAO), Example 10, behavioral deficit scoring over 21 days; format: in vivo, Wistar rats; details: 10 mg/kg i.v. 1.5, 5.5, 24, 48 and 72 hours post ischemia
Procedure: Administration of Compound of Example 2—10 mg/kg i.v. 1.5, 5.5, 24, 48, and 72 hours post ischemia.
Adult male Wistar rats (Charles River, Wilmington, Mass.) 270 g to 300 g were anesthetized with 3% isoflurane in 70% nitrous oxide and 30% oxygen through a nose cone. Temperature was maintained at 37° C. throughout the surgery using a heating lamp. Permanent occlusion of MCAO was induced by electro cauterization of the distal portion of the MCA (via a craniotomy) with a 90 minute ligation of both carotid arteries to interrupt collateral circulation (Chen S T, Hsu C Y, Hogan E L, Maricq H Balentine J D (1986) A model of focal ischemic stroke in the rat: reproducible extensive cortical infarction. Stroke 17:738-743). Compound was administered 10 mg/kg i.v. 1.5, 5.5, 24, 48, and 72 hours post ischemia. Rats were kept for 21 days for long-term functional recovery evaluation. […] Rats extending both forelimbs toward the table were scored as 0, flexing contralateral limb toward the body and/or rotating the contralateral shoulder and limb medially were scored as 1, and rolling up the body toward the contralateral side and attempting to grasp the tail were scored as 2. […] Rats retracting hind limb back on bench top immediately were scored as 0, delaying (>2 seconds) were scored as 1, and unable to retract hind limb were score as 2. […]

[3] = system: pMCAO in rats; assay: Further pMCAO studies, treatment paradigms (first dose 2, 6 or 24 hours post-occlusion); format: in vivo, rat; details: for neurological function following pMCAO vs vehicle: 5 total doses, 3-week period; for neurological function following pMCAO, long-term: additional 3 months
Source text: Rats were subjected to pMCAO and treated with either the compound of Example 2 delivered intravenously into rat tail vein [iv vehicle: 5% Tween 80, 5% PEG 400, 4% ethanol] or vehicle alone. Three different treatment paradigms were used to determine the clinical relevance of the compound of Example 2. Long-term sensorimotor deficits are monitored (tactile/proprioceptive/hindlimb placement tests) over a 3-week and 6-month period. The animals are scored on a scale of 0-12 (normal to severe neurological deficits).
In the first study, the first dose of 10 mg/kg of the compound of Example 2 is given 2 hours post-occlusion, followed by 4 additional doses, 24 hours apart (5 total doses). Neurological deficits were monitored over a 3-week period.
In the second study, the first dose of the compound of Example 2 is given 6 hours post-occlusion, followed by 4 additional doses, 24 hours apart (5 total doses). Neurological deficits were monitored over a 3-week period.
These animals were maintained for an additional 3 months. During this period, neurological deficits were continually monitored, to determine whether the effect seen at 21 days is stable and long lasting.
In the third study, the first dose of the compound of Example 2 is given 24 hours post-occlusion, followed by 4 additional doses, 24 hours apart (5 total doses). Neurological deficits were monitored over a 3-week period.
Brains from animals in the third study were collected and processed for neuronal, regenerative, and cell death markers.

[4] = 10 mg/kg iv, first dose 6 hours post-occlusion
[5] = 30 mg/kg iv, first dose 6 hours post-occlusion
[6] = 30 mg/kg, third study (first dose 24 hours post-occlusion)
[7] = 6 hour post-occlusion, dose not stated

CO[C@H]1C[C@@H]2CC[C@@H](C)[C@@](O)(O2)C(=O)C(=O)N2CCCC[C@H]2C(=O)O[C@H]([C@H](C)C[C@@H]2CC[C@@H](O)[C@H](OC)C2)CC(=O)[C@H](C)/C=C(\C)[C@@H](O)[C@@H](OC)C(=O)[C@H](C)C[C@H](C)[C@@H]2CC[C@H](/C=C/1C)ON2c1ccccc1 [Example 2, 9,27-dihydroxy-3-{2-[4-hydroxy-3-methoxycyclohexyl]-1-methylethyl}-10,21-dimethoxy-6,8,12,14,20,26-hexamethyl-37-phenyl-4,9,10,12,13,14,15,16,17,18,21,22,23,24,25,26,27,32,33,34,34a-henicosahydro-3H-23,27-epoxy-18,15-(epoxyimino)pyrido[2,1-c][1,4]oxazacyclohentriacontine-1,5,11,28,29(6H,31H)-pentone]
weight loss following tMCAO ([1]; 3 mg/kg iv): significantly attenuated weight loss
neurological deficits (modified Bederson scale) following tMCAO vs vehicle ([1]; 3 mg/kg iv at 4, 6, 24 and 48 hours post-occlusion): showed trends of improving neurological deficits, but did not reach statistical significance
reduction of infarct volume ([1]; 3 mg/kg iv, did not reach statistical significance): 9%
weight loss following tMCAO ([1]; 10 mg/kg iv): significantly attenuated weight loss
neurological deficits (modified Bederson scale) following tMCAO vs vehicle ([1]; 10 mg/kg iv at 4, 6, 24 and 48 hours post-occlusion): significantly improved neurological deficits
reduction of infarct volume ([1]; 10 mg/kg iv, significant vs vehicle): 24%
weight loss following tMCAO ([1]; 30 mg/kg iv): significantly attenuated weight loss
neurological deficits (modified Bederson scale) following tMCAO vs vehicle ([1]; 30 mg/kg iv at 4, 6, 24 and 48 hours post-occlusion): significantly improved neurological deficits
reduction of infarct volume ([1]; 30 mg/kg iv, significant vs vehicle): 23%
infarct volume following tMCAO in rats (FIG. 10) ([1]; dose not stated): reduces infarct volume
neurological deficits following tMCAO in rats (FIG. 8) ([1]; dose not stated): improves neurological deficits
weight loss following tMCAO in rats (FIG. 9) ([1]; dose not stated): attenuates weight loss
behavior deficit scoring (total score 0 to 12) following pMCAO [2]: statistically significant reduction of behavior deficit scoring
neurological function following pMCAO vs vehicle ([3]; 3 mg/kg iv, first dose 6 hours post-occlusion): did not improve neurological function
neurological function following pMCAO vs vehicle ([3]; 3 mg/kg iv, first dose 24 hours post-occlusion): did not improve neurological function
neurological function following pMCAO vs vehicle ([3]; 10 mg/kg iv, first dose 2 hours post-occlusion): significantly improved and accelerated neurological function; also recorded: improves neurological function
neurological function following pMCAO vs vehicle [3, 4]: significantly improved and accelerated neurological function
neurological function following pMCAO, long-term [3, 4]: further improved neurological function and this improvement was stable and long lasting
neurological function following pMCAO vs vehicle ([3]; 10 mg/kg iv, first dose 24 hours post-occlusion): did not improve neurological function
neurological function following pMCAO vs vehicle [3, 5]: significantly improved and accelerated neurological function
neurological function following pMCAO, long-term [3, 5]: further improved neurological function and this improvement was stable and long lasting
neurological function following pMCAO vs vehicle ([3]; 30 mg/kg iv, first dose 24 hours post-occlusion): significantly improved and accelerated neurological function
apoptotic cell death (TUNEL labeling) in the hippocampus [3, 6]: reducing apoptotic cell death
neuroprotection (Neu-N positive cells) in the hippocampus [3, 6]: promotes neuroprotection
neuroregeneration (GAP-43 labeling) in the cortex [3, 6]: promotes neuroregeneration in the cortex
neurological function following pMCAO (3-weeks) in rats (FIG. 12) [3, 7]: improves neurological function
neurological function following pMCAO (3 months) in rats (FIG. 13) [3, 7]: improves neurological function
neurological function following pMCAO (3 weeks) in rats (FIG. 14) ([3]; 24 hour post-occlusion, dose not stated): improves neurological function
neuroregeneration in the hippocampus (FIG. 15) ([3]; dose not stated): promotes neuroregeneration in the hippocampus
therapeutic window (time of first administration after onset of stroke) ([3]; rat models of ischemic stroke): at least 24 hours
